Structures can show the parent of a compound that is named as a salt. Where two headings read alike, the source gives them in different places.
Columns and labels:
Assay in all cases: In Vitro Anti-Bacterial Activity Test (MIC, agar dilution)
Format in all cases: cell-based
[1] = system: Streptococcus pyogenes 77A
Outline: (§1)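 MIC was determined by agar dilution on Mueller-Hinton agar. Each strain was inoculated at 10^7 C.F.U./ml, and growth was observed after 18 hours at 37° C, with ciprofloxacin as control agent.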

[2] = system: Pseudomonas aeruginosa 1592E; settings: Muller-Hinton agar, 37° C., 18 hours, read-out: MIC
Outline: as §1

[3] = system: Staphylococcus aureus 285; settings: Staphylococcus aureus, 285, 18 h, Staphylococcus aureus 285; Muller-Hinton agar, 37° C., 18 hours; read-out: MIC
Outline: as §1

[4] = system: Klebsiella aerogenes 1522E; settings: Klebsiella aerogenes, 1522E, 18 h, Klebsiella aerogenes 1522E; Muller-Hinton agar, 37° C., 18 hours; read-out: MIC
Outline: as §1

[5] = system: Staphylococcus aureus 503; settings: Staphylococcus aureus 503; Muller-Hinton agar, 37° C., 18 hours; read-out: MIC
Outline: as §1

[6] = system: Pseudomonas aeruginosa 1771M; settings: Pseudomonas aeruginosa, 1771M, 18 h, Muller-Hinton agar, 37° C.
Outline: as §1

[7] = system: Streptococcus faecium MD8b; settings: Enterococcus faecium, Muller-Hinton agar, 37° C., 18 hours, read-out: MIC
Outline: as §1

Escherichia coli 078 = system: Escherichia coli 078
Outline: as §1

[8] = system: Enterobacter cloacae 1321E; settings: Enterobacter cloacae 1321E; Muller-Hinton agar, 37° C., 18 hours; read-out: MIC
Outline: as §1

Salmonella typhimurium = settings: Salmonella enterica
Outline: as §1

Enterobacter cloacae P99 = settings: Enterobacter cloacae, P99, 18 h
Outline: (§2)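 Agar-incorporation MIC: Muller-Hinton medium, 10^7 C.F.U./ml inoculum, 18 h incubation at 37° C., growth checked by eye; ciprofloxacin reference.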

Escherichia coli DC2 = system: Escherichia coli DC2
Outline: as §1

[9] = system: Pseudomonas aeruginosa 9027; settings: Muller-Hinton agar, 37° C., 18 hours, read-out: MIC
Outline: as §1

Escherichia coli TEM = settings: Escherichia coli, 18 h, Muller-Hinton agar, 37° C.
Outline: as §2

[10] = system: Pseudomonas aeruginosa 1771; settings: Pseudomonas aeruginosa 1771; Muller-Hinton agar, 37° C., 18 hours; read-out: MIC
Outline: as §1

[11] = system: Staphylococcus aureus SG511; settings: Staphylococcus aureus SG511; Muller-Hinton agar, 37° C., 18 hours; read-out: MIC
Outline: as §1

Escherichia coli DC0 = settings: Muller-Hinton agar, 37° C., 18 hours, read-out: MIC
Outline: as §1

Escherichia coli 1507E = settings: Muller-Hinton agar, 37° C.
Outline: as §1

[12] = system: Streptococcus pyogenes 308A; settings: Muller-Hinton agar, 37° C., 18 hours, read-out: MIC
Outline: as §1

Klebsiella oxytoca 1082E = system: Klebsiella oxytoca 1082E
Outline: as §1

[13] = Streptococcus pyogenes 77A, Muller-Hinton agar, 37° C., 18 hours, read-out: MIC
[14] = Klebsiella oxytoca 1082E, Muller-Hinton agar, 37° C., 18 hours, read-out: MIC
[15] = Salmonella typhimurium, Muller-Hinton agar, 37° C., 18 hours, read-out: MIC
[16] = Streptococcus pyogenes, 77A, 18 h
[17] = Escherichia coli 078, Muller-Hinton agar, 37° C., 18 hours, read-out: MIC

| SMILES | MIC [1, 13] | MIC [2] | MIC [3] | MIC [4] | MIC [5] | MIC [6] | MIC [7] | MIC (Escherichia coli 078; Escherichia coli, 078, 18 h) | MIC [8] | MIC (Enterobacter cloacae P99) | MIC [9] | MIC (Escherichia coli TEM) | MIC [10] | MIC [11] | MIC (Escherichia coli DC0) | MIC (Escherichia coli 1507E; Escherichia coli, 1507E, 18 h) | MIC [12] | MIC (Klebsiella oxytoca 1082E; [14]) | MIC (Salmonella typhimurium; [15]) | MIC (Escherichia coli DC2; Escherichia coli, DC2, 18 h) | further results |
| --- | --- | --- | --- | --- | --- | --- | --- | --- | --- | --- | --- | --- | --- | --- | --- | --- | --- | --- | --- | --- | --- |
| CCOC(=O)C(C#N)C(=O)c1cn(C2CC2)c2c(Cl)c(N3CCC(N)C3)c(F)cc2c1=O (centres unmarked) [Example 39, 1-cyclopropyl-6-fluoro-8-chloro-7-(3-aminopyrrolidin-1-yl)-3-(2-cyano-2-ethoxycarbonylacetyl)-1,4-dihydro-4-oxoquinoline hydrochloride] | 6.25 µg/mL | 12.5 µg/mL | 1.56 µg/mL | 0.781 µg/mL | 1.56 µg/mL | 3.12 µg/mL | 6.25 µg/mL | 0.049 µg/mL | 0.049 µg/mL | 0.391 µg/mL | 12.5 µg/mL | 0.391 µg/mL | 12.5 µg/mL | 1.56 µg/mL | 6.25 µg/mL | 0.781 µg/mL | 25 µg/mL | 0.049 µg/mL |  |  | MIC (Salmonella typhimurium; TYPHIMURIUM, 18 h): 0.391 µg/mL; MIC (Escherichia coli DC2; Escherichia coli DC2, Muller-Hinton agar, 37° C., 18 hours, read-out: MIC): 3.12 µg/mL |
| NC1CCN(c2c(F)cc3c(=O)c(C(=O)C[N+](=O)[O-])cn(CCF)c3c2F)C1 (centres unmarked) [Example 31, 1-(2-fluoroethyl)-6,8-difluoro-7-(3-aminopyrrolidin-1-yl)-3-(2-nitroacetyl)-1,4-dihydro-4-oxoquinoline hydrochloride] | 1.56 µg/mL | 0.781 µg/mL | 0.391 µg/mL | 0.098 µg/mL | 0.391 µg/mL | 0.391 µg/mL | 0.781 µg/mL | 0.391 µg/mL | 0.049 µg/mL | 0.098 µg/mL | 0.781 µg/mL | 0.195 µg/mL | 0.781 µg/mL | 0.781 µg/mL | 0.195 µg/mL |  | 3.12 µg/mL |  | 0.391 µg/mL | 0.391 µg/mL | MIC (Escherichia coli 1507E; 18 hours, read-out: MIC): 0.198 µg/mL; MIC (Klebsiella oxytoca 1082E; Klebsiella oxytoca, 1082E, 18 h): 0.195 µg/mL |
| CC1CN(c2cc3c(cc2F)c(=O)c(C(=O)C[N+](=O)[O-])cn3-c2ccc(F)cc2F)CCN1 (centres unmarked) [Example 10, 1-(2,4-difluorophenyl)-6-fluoro-7-(3-methylpiperazin-1-yl)-3-(2-nitroacetyl)-1,4-dihydro-4-oxoquinoline hydrochloride] |  | 1.56 µg/mL | 0.391 µg/mL | 1.56 µg/mL | 0.391 µg/mL | 1.56 µg/mL | 1.56 µg/mL | 0.049 µg/mL | 0.049 µg/mL | 0.049 µg/mL | 3.12 µg/mL | 0.098 µg/mL | 3.12 µg/mL | 0.391 µg/mL | 1.56 µg/mL | 0.098 µg/mL | 1.56 µg/mL | 0.025 µg/mL | 0.049 µg/mL | 0.391 µg/mL | MIC [1, 16]: 0.781 µg/mL |
| Cc1c(F)c(N2CCNC(C)C2)cc2c1c(=O)c(C(=O)C[N+](=O)[O-])cn2C1CC1 (centres unmarked) [Example 51, 1-cyclopropyl-5-methyl-6-fluoro-7-(3-methylpiperazin-1-yl)-3-(2-nitroacetyl)-1,4-dihydro-4-oxoquinoline hydrochloride] | 0.391 µg/mL | 0.391 µg/mL | 0.098 µg/mL | 0.195 µg/mL | 0.098 µg/mL | 0.195 µg/mL | 0.391 µg/mL | 0.025 µg/mL | 0.025 µg/mL | 0.025 µg/mL | 0.781 µg/mL | 0.049 µg/mL | 0.781 µg/mL | 0.195 µg/mL | 0.781 µg/mL | 0.049 µg/mL | 0.781 µg/mL | 0.013 µg/mL | 0.025 µg/mL | 0.195 µg/mL |  |
| CCOC(=O)C(C(=O)OCC)C(=O)c1cn(C2CC2)c2c(Cl)c(N3CC=C(CNC)C3)c(F)cc2c1=O [Example 28, 1-cyclopropyl-6-fluoro-8-chloro-7-(3-methylaminomethyl-2,5-dihydropyrrol-1-yl)-3-(2,2-diethoxycarbonylacetyl)-1,4-dihydro-4-oxoquinoline hydrochloride] | 0.049 µg/mL | 0.391 µg/mL | 0.007 µg/mL | 0.013 µg/mL | < 0.002 µg/mL | 0.195 µg/mL | 0.049 µg/mL |  | < 0.002 µg/mL | < 0.002 µg/mL | 0.781 µg/mL | 0.013 µg/mL | 0.781 µg/mL | 0.004 µg/mL | 0.195 µg/mL | 0.013 µg/mL | 0.098 µg/mL | 0.007 µg/mL | 0.013 µg/mL | 0.049 µg/mL | MIC (Escherichia coli 078; [17]): < 0.002 µg/mL |
| CCOC(=O)C(C(=O)OCC)C(=O)c1cn(C2CC2)c2cc(N3CCNCC3)c(F)cc2c1=O [Example 18, 1-cyclopropyl-6-fluoro-7-(piperazin-1-yl)-3-(2,2-diethoxycarbonylacetyl)-1,4-dihydro-4-oxoquinoline hydrochloride] | 0.781 µg/mL | 0.391 µg/mL | 0.391 µg/mL | 0.013 µg/mL | 0.391 µg/mL | 0.049 µg/mL | 0.781 µg/mL |  | < 0.002 µg/mL | < 0.002 µg/mL | 0.781 µg/mL | 0.007 µg/mL | 0.195 µg/mL | 0.195 µg/mL | 0.195 µg/mL |  | 3.12 µg/mL | 0.004 µg/mL |  | 0.098 µg/mL | MIC (Escherichia coli 078; [17]): 0.004 µg/mL; MIC (Salmonella typhimurium; TYPHIMURIUM, 18 h): 0.007 µg/mL; MIC (Escherichia coli 1507E; 18 hours, read-out: MIC): 0.004 µg/mL |
| CCOC(=O)CC(=O)c1cn(C2CC2)c2c(Cl)c(N3CC[C@@H](N)C3)c(F)cc2c1=O [Example 26, 1-cyclopropyl-6-fluoro-8-chloro-7-(3-3R-aminopyrrolidin-1-yl)-3-(2-ethoxycarbonylacetyl)-1,4-dihydro-4-oxoquinoline hydrochloride] |  | 0.781 µg/mL | 0.098 µg/mL | 0.049 µg/mL | 0.098 µg/mL | 0.098 µg/mL | 0.781 µg/mL |  | 0.004 µg/mL | 0.013 µg/mL | 0.781 µg/mL | 0.013 µg/mL | 0.781 µg/mL | 0.098 µg/mL | 0.195 µg/mL | 0.025 µg/mL | 1.56 µg/mL | < 0.002 µg/mL | 0.007 µg/mL | 0.098 µg/mL | MIC [1, 16]: 0.781 µg/mL; MIC (Escherichia coli 078; [17]): 0.004 µg/mL |
